Assay results published in the supplement of paper PMC10307832.

Key:
Assay in all cases: relative viability (nuclei count vs DMSO), 5 days (fraction); higher = more cells survive
[1] = system: NCI-H1651
Procedure, shortened: (§1)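 The day after seeding in 1536-well plates, lung cancer cell lines were treated by pin tool with a single drug, or with a fixed anchor-drug dose together with five library-drug doses (not always all listed) in √10 steps. After 5 days, a combined fix-and-stain solution (final 0.05% Triton X-100, 1% formaldehyde, 1 ug/ml Hoechst) was added. Nuclei counted on 4× images gave relative viability as treated counts over vehicle counts, reported as the median of duplicate plates.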

[2] = system: ABC-1
Procedure, shortened: as §1

[3] = system: BEN
Procedure, shortened: as §1

[4] = system: H3255
Procedure, shortened: as §1

[5] = system: 201T
Procedure, shortened: as §1

[6] = system: NCI-H1650
Procedure, shortened: as §1

[7] = system: A-427
Procedure, shortened: as §1

[8] = system: NCI-H650
Procedure, shortened: as §1

[9] = system: LC-2-ad
Procedure, shortened: as §1

[10] = system: NCI-H727
Procedure, shortened: as §1

[11] = system: NCI-H661
Procedure, shortened: as §1

[12] = system: HCC-15
Procedure, shortened: as §1

[13] = system: LCLC-97TM1
Procedure, shortened: as §1

[14] = system: NCI-H1915
Procedure, shortened: as §1

[15] = system: NCI-H2087
Procedure, shortened: as §1

[16] = system: CAL-12T
Procedure, shortened: as §1

[17] = system: NCI-H441
Procedure, shortened: as §1

[18] = system: NCI-H596
Procedure, shortened: as §1

[19] = system: PC-3 [JPC-3]
Procedure, shortened: as §1

[20] = system: NCI-H2023
Procedure, shortened: as §1

[21] = system: NCI-H520
Procedure, shortened: as §1

[22] = system: NCI-H1944
Procedure, shortened: as §1

[23] = system: NCI-H460
Procedure, shortened: as §1

Compound `CC(C)Oc1cc(Nc2nc(N[C@@H](C)c3ccc(F)cn3)ncc2Cl)n[nH]1` [AZ23] + COc1cc2c(Oc3ccc(NC(=O)C4(C(=O)Nc5ccc(F)cc5)CC4)cc3F)ccnc2cc1OCCCN1CCOCC1 [Foretinib] (partner 0.25 µM) has a relative viability ([1]; first compound 0.03162 µM) of 0.828, a relative viability ([1]; first compound 0.3162 µM) of 0.844 and a relative viability ([2]; first compound 0.01 µM) of 1.03. It also gave a relative viability ([2]; first compound 0.03162 µM) of 1.04, a relative viability ([2]; first compound 0.3162 µM) of 1.02 and a relative viability ([3]; first compound 0.01 µM) of 0.625. For the same compound, the relative viability ([3]; first compound 0.03162 µM) was 0.807, the relative viability ([3]; first compound 0.3162 µM) was 0.772 and the relative viability ([4]; first compound 0.01 µM) was 0.881. For the same compound, the relative viability ([4]; first compound 0.03162 µM) was 0.764, the relative viability ([4]; first compound 0.3162 µM) was 0.915 and the relative viability ([5]; first compound 0.03162 µM) was 1.28. For the same compound, the relative viability ([5]; first compound 0.3162 µM) was 1.13, the relative viability ([6]; first compound 0.03162 µM) was 1.51 and the relative viability ([6]; first compound 0.3162 µM) was 1.23. It also gave a relative viability ([7]; first compound 0.01 µM) of 1, a relative viability ([7]; first compound 0.03162 µM) of 1.05 and a relative viability ([7]; first compound 0.3162 µM) of 1.07. It also gave a relative viability ([8]; first compound 0.01 µM) of 0.988, a relative viability ([8]; first compound 0.03162 µM) of 1.01 and a relative viability ([8]; first compound 0.3162 µM) of 1. The relative viability ([9]; first compound 0.01 µM) was 1.07, the relative viability ([9]; first compound 0.03162 µM) was 0.993 and the relative viability ([9]; first compound 0.3162 µM) was 1.02. The relative viability ([10]; first compound 0.01 µM) was 0.789, the relative viability ([10]; first compound 0.03162 µM) was 0.852 and the relative viability ([10]; first compound 0.3162 µM) was 1.1. The relative viability ([11]; first compound 0.01 µM) was 1.15, the relative viability ([11]; first compound 0.03162 µM) was 1.06 and the relative viability ([11]; first compound 0.3162 µM) was 1. The relative viability ([12]; first compound 0.01 µM) was 1.16, the relative viability ([12]; first compound 0.03162 µM) was 1.09 and the relative viability ([12]; first compound 0.3162 µM) was 1.05. For the same compound, the relative viability ([13]; first compound 0.01 µM) was 0.922, the relative viability ([13]; first compound 0.03162 µM) was 0.928 and the relative viability ([13]; first compound 0.3162 µM) was 1.01. It also gave a relative viability ([14]; first compound 0.01 µM) of 1.22, a relative viability ([14]; first compound 0.03162 µM) of 1.14 and a relative viability ([14]; first compound 0.3162 µM) of 1.08. The relative viability ([15]; first compound 0.01 µM) was 1.49, the relative viability ([15]; first compound 0.03162 µM) was 1.09 and the relative viability ([15]; first compound 0.3162 µM) was 1.02. It also gave a relative viability ([16]; first compound 0.03162 µM) of 1.14, a relative viability ([16]; first compound 0.3162 µM) of 0.884 and a relative viability ([17]; first compound 0.01 µM) of 1.52. The relative viability ([17]; first compound 0.03162 µM) was 0.854, the relative viability ([17]; first compound 0.3162 µM) was 0.967 and the relative viability ([18]; first compound 0.01 µM) was 0.89. It also gave a relative viability ([18]; first compound 0.03162 µM) of 0.877, a relative viability ([18]; first compound 0.3162 µM) of 0.737 and a relative viability ([19]; first compound 0.01 µM) of 1.23. The relative viability ([19]; first compound 0.03162 µM) was 1.14, the relative viability ([19]; first compound 0.3162 µM) was 0.996 and the relative viability ([20]; first compound 0.03162 µM) was 0.88. For the same compound, the relative viability ([20]; first compound 0.3162 µM) was 0.924, the relative viability ([21]; first compound 0.01 µM) was 0.813 and the relative viability ([21]; first compound 0.03162 µM) was 0.966. For the same compound, the relative viability ([21]; first compound 0.3162 µM) was 0.677, the relative viability ([22]; first compound 0.01 µM) was 0.811 and the relative viability ([22]; first compound 0.03162 µM) was 0.954. It also gave a relative viability ([22]; first compound 0.3162 µM) of 0.864, a relative viability ([23]; first compound 0.01 µM) of 1.12 and a relative viability ([23]; first compound 0.03162 µM) of 1.11. For the same compound, the relative viability ([23]; first compound 0.3162 µM) was 1.05.
For `CC(C)Oc1cc(Nc2nc(N[C@@H](C)c3ccc(F)cn3)ncc2Cl)n[nH]1` [AZ23] + Cc1cc(Nc2cc(N3CCN(C)CC3)nc(Sc3ccc(NC(=O)C4CC4)cc3)n2)n[nH]1 [Tozasertib] (partner 0.1 µM), the relative viability ([1]; first compound 0.03162 µM) was 0.885, the relative viability ([1]; first compound 0.3162 µM) was 0.71 and the relative viability ([2]; first compound 0.01 µM) was 0.192. The relative viability ([2]; first compound 0.03162 µM) was 0.201, the relative viability ([2]; first compound 0.3162 µM) was 0.195 and the relative viability ([3]; first compound 0.01 µM) was 0.483. The relative viability ([3]; first compound 0.03162 µM) was 0.544, the relative viability ([3]; first compound 0.3162 µM) was 0.527 and the relative viability ([4]; first compound 0.01 µM) was 0.662. For the same compound, the relative viability ([4]; first compound 0.03162 µM) was 0.821, the relative viability ([4]; first compound 0.3162 µM) was 0.675 and the relative viability ([5]; first compound 0.01 µM) was 1.03. It also gave a relative viability ([5]; first compound 0.03162 µM) of 0.968, a relative viability ([5]; first compound 0.3162 µM) of 0.985 and a relative viability ([6]; first compound 0.03162 µM) of 0.433. The relative viability ([6]; first compound 0.3162 µM) was 0.45, the relative viability ([7]; first compound 0.01 µM) was 0.174 and the relative viability ([7]; first compound 0.03162 µM) was 0.193. For the same compound, the relative viability ([7]; first compound 0.3162 µM) was 0.177, the relative viability ([8]; first compound 0.01 µM) was 0.728 and the relative viability ([8]; first compound 0.03162 µM) was 0.75. The relative viability ([8]; first compound 0.3162 µM) was 0.802, the relative viability ([9]; first compound 0.01 µM) was 0.467 and the relative viability ([9]; first compound 0.03162 µM) was 0.446. The relative viability ([9]; first compound 0.3162 µM) was 0.452, the relative viability ([10]; first compound 0.01 µM) was 0.754 and the relative viability ([10]; first compound 0.03162 µM) was 0.679. For the same compound, the relative viability ([10]; first compound 0.3162 µM) was 0.37, the relative viability ([11]; first compound 0.01 µM) was 0.366 and the relative viability ([11]; first compound 0.03162 µM) was 0.354. It also gave a relative viability ([11]; first compound 0.3162 µM) of 0.353, a relative viability ([12]; first compound 0.01 µM) of 0.513 and a relative viability ([12]; first compound 0.03162 µM) of 0.498. For the same compound, the relative viability ([12]; first compound 0.3162 µM) was 0.631, the relative viability ([13]; first compound 0.01 µM) was 0.186 and the relative viability ([13]; first compound 0.03162 µM) was 0.266. The relative viability ([13]; first compound 0.3162 µM) was 0.194, the relative viability ([14]; first compound 0.01 µM) was 0.479 and the relative viability ([14]; first compound 0.03162 µM) was 0.507. The relative viability ([14]; first compound 0.3162 µM) was 0.514, the relative viability ([15]; first compound 0.01 µM) was 0.271 and the relative viability ([15]; first compound 0.03162 µM) was 0.245. For the same compound, the relative viability ([15]; first compound 0.3162 µM) was 0.245, the relative viability ([16]; first compound 0.03162 µM) was 0.342 and the relative viability ([16]; first compound 0.3162 µM) was 0.241. It also gave a relative viability ([17]; first compound 0.01 µM) of 0.813, a relative viability ([17]; first compound 0.03162 µM) of 0.782 and a relative viability ([17]; first compound 0.3162 µM) of 0.609. For the same compound, the relative viability ([18]; first compound 0.01 µM) was 1, the relative viability ([18]; first compound 0.03162 µM) was 0.826 and the relative viability ([18]; first compound 0.3162 µM) was 0.827. For the same compound, the relative viability ([19]; first compound 0.01 µM) was 1.03, the relative viability ([19]; first compound 0.03162 µM) was 0.87 and the relative viability ([19]; first compound 0.3162 µM) was 0.959. The relative viability ([20]; first compound 0.03162 µM) was 0.457, the relative viability ([20]; first compound 0.3162 µM) was 0.46 and the relative viability ([21]; first compound 0.01 µM) was 0.455. It also gave a relative viability ([21]; first compound 0.03162 µM) of 0.485, a relative viability ([21]; first compound 0.3162 µM) of 0.475 and a relative viability ([22]; first compound 0.01 µM) of 0.279. For the same compound, the relative viability ([22]; first compound 0.03162 µM) was 0.247, the relative viability ([22]; first compound 0.3162 µM) was 0.243 and the relative viability ([23]; first compound 0.01 µM) was 0.184. The relative viability ([23]; first compound 0.03162 µM) was 0.518 and the relative viability ([23]; first compound 0.3162 µM) was 0.566.
